# Laboratory results published in patent publication US9663460B2, “Sulfur derivatives as chemokine receptor modulators” (ALLERGAN, INC., priority 2010, dated 2017).
# Target: CCR2 (Homo sapiens (Human), UniProt P41597)
# Experiment: Calcium activity assayed on the FLIPR Tetra in HEK-Gqi5 cells stably expressing CCR2
# Assay type: cell-based
# Settings: FLIPR Tetra calcium assay
# Experimental: HEK-Gqi5 cells stably expressing CCR2 were cultured in (DMEM high glucose, 10% FBS, 1% PSA, 400 μg/ml geneticin and 50 μg/ml hygromycin. Appropriate positive control chemokines (MCP-1, MIP1A or RANTES) was used as the positive control agonist for screening compound-induced calcium activity assayed on the FLIPR^Tetra. The drug plates were prepared in 384-well microplates using the EP3 and the MuItiPROBE robotic liquid handling systems. Compounds were synthesized and tested for CCR^2 activity.
# Chain of CCR2 (P41597 whole entry, species assumed): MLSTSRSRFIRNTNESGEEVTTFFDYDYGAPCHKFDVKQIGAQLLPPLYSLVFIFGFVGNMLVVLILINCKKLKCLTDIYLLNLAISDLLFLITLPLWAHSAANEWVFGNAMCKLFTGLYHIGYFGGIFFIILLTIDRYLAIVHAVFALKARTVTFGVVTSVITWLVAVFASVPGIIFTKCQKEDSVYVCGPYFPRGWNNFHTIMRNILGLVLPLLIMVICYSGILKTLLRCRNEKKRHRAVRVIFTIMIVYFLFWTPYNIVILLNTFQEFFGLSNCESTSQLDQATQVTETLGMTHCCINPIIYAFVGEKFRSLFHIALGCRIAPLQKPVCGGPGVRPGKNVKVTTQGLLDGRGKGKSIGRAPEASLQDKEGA
CCR2 % ANTAGONISM,IC50,Compound
91%,62 nM,C[S+]([O-])c1ccc(Cl)cc1NS(=O)(=O)c1ccc(Cl)cc1 (stereo not drawn) [4-chloro-N-[5-chloro-2-(methylsulfinyl)phenyl]benzenesulfonamide]
98%,171 nM,CS(=O)(=O)c1ccc(Cl)cc1NS(=O)(=O)c1ccc(Cl)cc1F [4-chloro-N-[5-chloro-2-(methylsulfonyl)phenyl]-2-fluorobenzenesulfonamide]
90%,64 nM,CS(=O)(=O)c1ccc(Cl)cc1NS(=O)(=O)c1ccc(Cl)c(C(F)(F)F)c1 [4-chloro-N-[5-chloro-2-(methylsulfonyl)phenyl]-3-(trifluoromethyl)benzenesulfonamide]
98%,155 nM,CS(=O)(=O)c1ccc(Cl)cc1NS(=O)(=O)c1ccc(Cl)cc1 [4-chloro-N-[5-chloro-2-(methylsulfonyl)phenyl]benzenesulfonamide]
82%,134 nM,CSc1ccc(Cl)cc1NS(=O)(=O)c1ccc(Cl)c(C(F)(F)F)c1 [4-chloro-N-[5-chloro-2-(methylthio)phenyl]-3-(trifluoromethyl)benzenesulfonamide]
93%,453 nM,CSc1ccc(Cl)cc1NS(=O)(=O)c1ccc(Cl)c(C)c1 [4-chloro-N-[5-chloro-2-(methylthio)phenyl]-3-methylbenzenesulfonamide]
94%,406 nM,CSc1ccc(Cl)cc1NS(=O)(=O)c1ccc(Cl)cc1 [4-chloro-N-[5-chloro-2-(methylthio)phenyl]benzenesulfonamide]
109%,163 nM,O=S(=O)(Nc1cc(Cl)ccc1[S+]([O-])Cc1ncc[nH]1)c1ccc(Cl)c(C(F)(F)F)c1 (stereo not drawn) [4-chloro-N-{5-chloro-2-[(1H-imidazol-2-ylmethyl)sulfinyl]phenyl}-3-(trifluoromethyl)benzenesulfonamide]
113%,249 nM,O=S(=O)(Cc1ncc[nH]1)c1ccc(Cl)cc1NS(=O)(=O)c1ccc(Cl)c(C(F)(F)F)c1 [4-chloro-N-{5-chloro-2-[(1H-imidazol-2-ylmethyl)sulfonyl]phenyl}-3-(trifluoromethyl)benzenesulfonamide]
84%,190 nM,O=S(=O)(Nc1cc(Cl)ccc1SCc1ncc[nH]1)c1ccc(Cl)c(C(F)(F)F)c1 [4-chloro-N-{5-chloro-2-[(1H-imidazol-2-ylmethyl)thio]phenyl}-3-(trifluoromethyl)benzenesulfonamide]
111%,158 nM,O=S(=O)(Nc1cc(Cl)ccc1[S+]([O-])Cc1c[nH]cn1)c1ccc(Cl)c(C(F)(F)F)c1 (stereo not drawn) [4-chloro-N-{5-chloro-2-[(1H-imidazol-4-ylmethyl)sulfinyl]phenyl}-3-(trifluoromethyl)benzenesulfonamide]
108%,51 nM,O=S(=O)(Cc1c[nH]cn1)c1ccc(Cl)cc1NS(=O)(=O)c1ccc(Cl)c(C(F)(F)F)c1 [4-chloro-N-{5-chloro-2-[(1H-imidazol-4-ylmethyl)sulfonyl]phenyl}-3-(trifluoromethyl)benzenesulfonamide]
83%,68 nM,O=S(=O)(Nc1cc(Cl)ccc1SCc1c[nH]cn1)c1ccc(Cl)c(C(F)(F)F)c1 [4-chloro-N-{5-chloro-2-[(1H-imidazol-4-ylmethyl)thio]phenyl}-3-(trifluoromethyl)benzenesulfonamide]
101%,146 nM,O=S(=O)(Nc1cc(Cl)ccc1[S+]([O-])CCO)c1ccc(Cl)c(C(F)(F)F)c1 (stereo not drawn) [4-chloro-N-{5-chloro-2-[(2-hydroxyethyl)sulfinyl]phenyl}-3-(trifluoromethyl)benzenesulfonamide]
96%,95 nM,O=S(=O)(CCO)c1ccc(Cl)cc1NS(=O)(=O)c1ccc(Cl)c(C(F)(F)F)c1 [4-chloro-N-{5-chloro-2-[(2-hydroxyethyl)sulfonyl]phenyl}-3-(trifluoromethyl)benzenesulfonamide]
88%,153 nM,O=S(=O)(Nc1cc(Cl)ccc1SCCO)c1ccc(Cl)c(C(F)(F)F)c1 [4-chloro-N-{5-chloro-2-[(2-hydroxyethyl)thio]phenyl}-3-(trifluoromethyl)benzenesulfonamide]
101%,107 nM,O=S(=O)(Nc1cc(Cl)ccc1[S+]([O-])C1CCC(O)C1)c1ccc(Cl)c(C(F)(F)F)c1 (stereo not drawn) [4-chloro-N-{5-chloro-2-[(3-hydroxycyclopentyl)sulfinyl]phenyl}-3-(trifluoromethyl)benzenesulfonamide]
97%,76 nM,O=S(=O)(Nc1cc(Cl)ccc1S(=O)(=O)C1CCC(O)C1)c1ccc(Cl)c(C(F)(F)F)c1 (stereo not drawn) [4-chloro-N-{5-chloro-2-[(3-hydroxycyclopentyl)sulfonyl]phenyl}-3-(trifluoromethyl)benzenesulfonamide]
83%,92 nM,O=S(=O)(Nc1cc(Cl)ccc1[S+]([O-])Cc1ccccn1)c1ccc(Cl)c(C(F)(F)F)c1 (stereo not drawn) [4-chloro-N-{5-chloro-2-[(pyridin-2-ylmethyl)sulfinyl]phenyl}-3-(trifluoromethyl)benzenesulfonamide]
79%,199 nM,O=S(=O)(Nc1cc(Cl)ccc1SCc1ccccn1)c1ccc(Cl)c(C(F)(F)F)c1 [4-chloro-N-{5-chloro-2-[(pyridin-2-ylmethyl)thio]phenyl}-3-(trifluoromethyl)benzenesulfonamide]
97%,112 nM,O=S(=O)(Nc1cc(Cl)ccc1[S+]([O-])Cc1cccnc1)c1ccc(Cl)c(C(F)(F)F)c1 (stereo not drawn) [4-chloro-N-{5-chloro-2-[(pyridin-3-ylmethyl)sulfinyl]phenyl}-3-(trifluoromethyl)benzenesulfonamide]
85%,94 nM,O=S(=O)(Nc1cc(Cl)ccc1SCc1cccnc1)c1ccc(Cl)c(C(F)(F)F)c1 [4-chloro-N-{5-chloro-2-[(pyridin-3-ylmethyl)thio]phenyl}-3-(trifluoromethyl)benzenesulfonamide]
92%,655 nM,C[S+]([O-])c1ccc(Cl)cc1NS(=O)(=O)c1cc2cc(Cl)ccc2o1 (stereo not drawn) [5-chloro-N-[5-chloro-2-(methylsulfinyl)phenyl]-1-benzofuran-2-sulfonamide]
74%,2050 nM,CS(=O)(=O)c1ccc(Cl)cc1NS(=O)(=O)c1cc2cc(Cl)ccc2o1 [5-chloro-N-[5-chloro-2-(methylsulfonyl)phenyl]-1-benzofuran-2-sulfonamide]
79%,2680 nM,"CC(=O)Nc1nc(C[S+]([O-])c2ccc(Cl)cc2NS(=O)(=O)c2cc3ccccc3o2)cs1 (stereo not drawn) [Compound 236, N-{-4-[({2-[(1-benzofuran-2-ylsulfonyl)amino]-4-chlorophenyl}sulfinyl)methyl]-1,3-thiazol-2-yl}acetamide]"
87%,–,"CC(=O)Nc1nc(CS(=O)(=O)c2ccc(Cl)cc2NS(=O)(=O)c2cc3ccccc3o2)cs1 [Compound 237, N-{-4-[({2-[(1-benzofuran-2-ylsulfonyl)amino]-4-chlorophenyl}sulfonyl)methyl]-1,3-thiazol-2-yl}acetamide]"
